# Measurements from US7202239B2, “Cyclohexylphenyl carboxamides tocolytic oxytocin receptor antagonists” (Wyeth, priority 2001, dated 2007).
# Biological target: human vasopressin V1a receptor subtype (Homo sapiens, UniProt P37288)
# Experiment: Vasopressin binding in CHO cell membranes expressing human vasopressin V1a subtype receptors
# Conditions: 100 nM, [3H]Manning ligand
# Text: Vasopressin Binding in Chinese Hamster Ovary Cell Membranes Expressing Human Vasopressin V1a Subtype Receptors
# Chinese hamster ovary cells (CHO cells) stably transfected with the human vasopressin V1a subtype receptors were either obtained from Biosignal Inc., 1744 rue Williams, Montreal, Quebec, Canada or obtained from M. Thibonnier, Case Western Reserve University School of Medicine, Cleveland, Ohio. A. Passaging and Amplification of Cells: CHO cells transfected with the human vasopressin V1a subtype receptors obtained from M. Thibonnier (pZeoSV vector) are allowed to grow to confluency (approx. >90%) in T-150 flasks under sterile conditions, in a cell culture medium of F-12 Nutrient Mixture (HAM) with L-glutamine (Gibco Cat. # 11765-054) containing 15 mM HEPES (Gibco Cat. 15630-080), 1% antibiotic/antimycotic (add 5 mL 100×, Gibco Cat. 15240-062 per 500 mL F-12), 250 μg/mL Zeocin (add 1.25 mL of 100 mg/mL Invitrogen R-250-01 per 500 mL F-12) and 10% Fetal Bovine Serum (Qualified, heat inactivated, Gibco Cat. # 16140-063). The medium is removed by aspiration and the cells are washed with 10 mL of Hank's Balanced Salt solution (Gibco Cat. # 14175-095). The salt solution is removed by aspiration and the cells are trypsinized with 5 mL of trypsin-EDTA (0.05% trypsin, 0.53 mM EDTA-4Na, Gibco Cat. # 25300-070) for 1 min. The trypsin is removed by aspiration and the cells dislodged by tapping. Cell Culture medium (eg, 30 mL for 1:30 split) is immediately added and mixed well to inactivate trypsin. 1 mL of detached cells is added to new culture flasks containing fresh cell culture medium (eg, into 25 mL per T-150 flask), and mixed gently. The cells are incubated at 37° C. in 5% CO2. The medium is changed at 3 to 4 days interval (or as appropriate). The cells grow to confluency (approx. >75%–95%) within 7–8 days. All steps are done under sterile conditions. B. Membrane Preparation: The cells are washed twice gently with Hank's Balanced Salt solution (e.g,. use 10 mL per T-150 flask). The excess is removed and the cells are bathed for 15–30 min. in an enzyme-free Cell Dissociation Buffer (e.g. use 8 mL Hank's Based, Gibco Cat. # 13150-016 per T-150 flask) until the cells are loosened. The contents are transferred to centrifuge tubes (50 mL) kept in an ice bath. All subsequent steps are done at 4° C. The tubes are centrifuged at 300×g for 15 min (1380 rpm on SORVAL, Model RT6000D, using rotor for the 50 mL tubes). The supernatant is discarded and the cells suspended in homogeneizing buffer(10 mM Tris-HCl containing 0.25 M sucrose and 1 mM EDTA, pH 7.4) ensuring that the volume of the buffer is about ten times the volume of the cell pellet. The cells are pooled into a centrifuge tube (50 mL) and homogenized with Polytron at setting 6 for 10 sec. The homogenate is transferred into a Potter-Elvjehm homogenizer and homogenized with 3 strokes. The homogenate is centrifuged at 1500× g for 10 min at 4° C. (3100 rpm using SORVAL, model RT6000D, using the rotor for 50 mL tubes). The pellet is discarded. The supernatant is centrifuged at 100,000×g for 60 min. at 4° C. (Beckman L8-80M ultracentrifuge; spin at 37,500 rpm with rotor type 70 Ti for 50 mL tubes; 38,000 rpm with type 80Ti for 15 mL tubes; or 35,800 rpm with rotor type 45Ti). The supernantant is discarded and the pellet suspended in 3 to 4 mL of Tris buffer (50 mM TRIS-HCl, pH 7.4). The protein content is estimated by the Bradford or Lowry method. The volume of the membrane suspension is adjusted with the membrane buffer (50 mM Tris-HCl containing 0.1% BSA and 0.1 mM PMSF) to give 3.0 mg/mL (or as appropriate) of protein. The membranes are aliquoted and stored at −70° C. C. […]
# human vasopressin V1a receptor subtype, sequence (P37288 whole entry): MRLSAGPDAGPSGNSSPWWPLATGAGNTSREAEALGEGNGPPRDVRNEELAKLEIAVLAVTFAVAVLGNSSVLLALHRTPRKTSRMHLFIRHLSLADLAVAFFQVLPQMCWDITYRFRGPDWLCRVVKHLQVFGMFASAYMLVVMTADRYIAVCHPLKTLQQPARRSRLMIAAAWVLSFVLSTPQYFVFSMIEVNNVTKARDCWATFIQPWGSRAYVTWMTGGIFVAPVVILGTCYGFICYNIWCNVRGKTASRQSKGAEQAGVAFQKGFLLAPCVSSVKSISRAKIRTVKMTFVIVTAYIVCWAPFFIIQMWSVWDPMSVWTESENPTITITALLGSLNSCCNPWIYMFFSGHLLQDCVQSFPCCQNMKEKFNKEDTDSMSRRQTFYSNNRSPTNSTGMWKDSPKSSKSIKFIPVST
SMILES,inhibition at 0.1 µM [%],V1a % inhibition at 100 nM [%]
"COC(=O)c1ccc2c(c1)N(C(=O)c1ccc(C3CCCCC3)cc1)Cc1ccc(C(=O)N3CCN(C)CC3)n1C2.Cl [Example 1, Methyl 10-(4-cyclohexylbenzoyl)-3-[(4-methyl-1-piperazinyl)carbonyl]-10,11-dihydro-5H-pyrrolo[2,1-c][1,4]benzodiazepine-8-carboxylate hydrochloride salt]",-7,–
"CN1CCN(C(=O)c2ccc3n2Cc2ccc(C(=O)O)cc2N(C(=O)c2ccc(C4CCCCC4)cc2)C3)CC1 [Example 3, 10-(4-Cyclohexyl-benzoyl)-3-[(4-methyl-1-piperazinyl)carbonyl]-10,11-dihydro-5H-pyrrolo[2,1-c][1,4]benzodiazepine-8-carboxylic acid]",-19,–
"CC(C)(C)c1ccc(C(=O)c2ccc3n2Cc2ccccc2N(C(=O)c2ccc(C4CCCCC4)cc2)C3)cc1 [Example 5, [4-(tert-Butyl)phenyl][10-(4-cyclohexyl-benzoyl)-10,11-dihydro-5H-pyrrolo[2,1-c][1,4]benzodiazepin-3-yl]methanone]",3,–
"CN1CCC(N(C)C(=O)c2ccc3n2Cc2ccccc2N(C(=O)c2ccc(C4CCCCC4)cc2)C3)C1 (stereo not drawn) [Example 40, 10-(4-Cyclohexyl-benzoyl)-N-methyl-N-(1-methyl-3-pyrrolidinyl)-10,11-dihydro-5H-pyrrolo[2,1-c][1,4]benzodiazepine-3-carboxamide]",22,–
"CN(C)CCN1CCN(C(=O)c2ccc3n2Cc2ccccc2N(C(=O)c2ccc(C4CCCCC4)cc2)C3)CC1 [Example 41, [10-(4-Cyclohexyl-benzoyl)-10,11-dihydro-5H-pyrrolo[2,1-c][1,4]benzodiazepin-3-yl]{4-[2-(dimethylamino)ethyl]-1-piperazinyl}methanone]",14,–
"O=C(c1ccc2n1Cc1ccccc1N(C(=O)c1ccc(C3CCCCC3)cc1)C2)N1CCN(CCN2CCOCC2)CC1 [Example 42, [10(4-Cyclohexyl-benzoyl)-10,11-dihydro-5H-pyrrolo[2,1-c][1,4]benzodiazepin-3-yl]{4-[2-(4-morpholinyl)ethyl]-1-piperazinyl}methanone]",28,–
"C=CCN1CCN(C(=O)c2ccc3n2Cc2ccccc2N(C(=O)c2ccc(C4CCCCC4)cc2)C3)CC1 [Example 43, (4-Allyl-1-piperazinyl)[10-(4-cyclohexyl-benzoyl)-10,11-dihydro-5H-pyrrolo[2,1-c][1,4]benzodiazepin-3-yl]methanone]",1,–
"CC(C)N1CCN(C(=O)c2ccc3n2Cc2ccccc2N(C(=O)c2ccc(C4CCCCC4)cc2)C3)CC1 [Example 44, [10-(4-Cyclohexyl-benzoyl)-10,11-dihydro-5H-pyrrolo[2,1-c][1,4]benzodiazepin-3-yl](4-isopropyl-1-piperazinyl)methanone]",1,–
"CN(C)CCCN1CCN(C(=O)c2ccc3n2Cc2ccccc2N(C(=O)c2ccc(C4CCCCC4)cc2)C3)CC1 [Example 45, [10-(4-Cyclohexyl-benzoyl)-10,11-dihydro-5H-pyrrolo[2,1-c][1,4]benzodiazepin-3-yl]{4-[3-(dimethylamino)propyl]-1-piperazinyl}methanone]",31,–
"O=C(c1ccc(C2CCCCC2)cc1)N1Cc2ccc(C(=O)N3CCC[C@H]3CN3CCCC3)n2Cc2ccccc21 [Example 46, [10-(4-Cyclohexyl-benzoyl)-10,11-dihydro-5H-pyrrolo[2,1-c][1.4]benzodiazepin-3-yl][(2S)-2-(1-pyrrolidinylmethyl)pyrrolidinyl]methanone]",–,21
"CN(C)[C@@H]1CCN(C(=O)c2ccc3n2Cc2ccccc2N(C(=O)c2ccc(C4CCCCC4)cc2)C3)C1 [Example 47, [10-(4-Cyclohexyl-benzoyl)-10,11-dihydro-5H-pyrrolo[2,1-C][1,4]benzodiazepin-3-yl][(3R)-3-(dimethylamino)pyrrolidinyl]methanone]",–,28
"O=C(c1ccc2n1Cc1ccccc1N(C(=O)c1ccc(C3CCCCC3)cc1)C2)N1CCN(CCO)CC1 [Example 48, [10-(4-Cyclohexyl-benzoyl)-10,11-dihydro-5H-pyrrolo[2,1-c][1,4]benzodiazepin-3-y][4-(2-hydroxyethyl)-1-piperazinyl]methanone]",–,35
"O=C(NCCc1ccccn1)c1ccc2n1Cc1ccccc1N(C(=O)c1ccc(C3CCCCC3)cc1)C2 [Example 49, 10-(4-Cyclohexyl-benzoyl)-N-[2-(2-pyridinyl)ethyl]-10,11-dihydro-5H-pyrrolo[2,1-c][1,4]benzodiazepine-3-carboxamide]",0,–
"O=C(NCc1ccccn1)c1ccc2n1Cc1ccccc1N(C(=O)c1ccc(C3CCCCC3)cc1)C2 [Example 50, 10-(4-Cyclohexyl-benzoyl)-N-(2-pyridinylmethyl)-10,11-dihydro-5H-pyrrolo[2,1-c][1,4]benzodiazepine-3-carboxamide]",3,–
"O=C(NCc1cccnc1)c1ccc2n1Cc1ccccc1N(C(=O)c1ccc(C3CCCCC3)cc1)C2 [Example 51, 10-(4-Cyclohexyl-benzoyl)-N-(3-pyridinylmethyl)-10,11-dihydro-5H-pyrrolo [2,1-c][1,4]benzodiazepine-3-carboxamide]",-1,–
"CN(CCc1ccccn1)C(=O)c1ccc2n1Cc1ccccc1N(C(=O)c1ccc(C3CCCCC3)cc1)C2 [Example 52, 10-(4-Cyclohexyl-benzoyl)-N-methyl-N-[2-(2-pyridinyl)-ethyl]-10,11-dihydro-5H-pyrrolo[2,1-c][1,4]benzodiazepine-3-carboxamide]",19,–
"O=C(NCc1ccncc1)c1ccc2n1Cc1ccccc1N(C(=O)c1ccc(C3CCCCC3)cc1)C2 [Example 53, 10-(4-Cyclohexyl-benzoyl)-N-(4-pyridinylmethyl)-10,11-dihydro-5H-pyrrolo[2,1-c][1,4]benzodiazepine-3-carboxamide]",20,–
"O=C(c1ccc2n1Cc1ccccc1N(C(=O)c1ccc(C3CCCCC3)cc1)C2)N1CCN(c2ccncc2)CC1 [Example 54, [10-(4-Cyclohexyl-benzoyl)-10,11-dihydro-5H-pyrrolo[2,1-c][1,4]benzpdiazepin-3-yl][4-(4-pyridinyl)-1-piperazinyl]-methanone]",–,0
"CN(CCc1ccncc1)C(=O)c1ccc2n1Cc1ccccc1N(C(=O)c1ccc(C3CCCCC3)cc1)C2 [Example 55, 10-(4-Cyclohexyl-benzoyl)-N-methyl-N-[2(4-pyridinyl)ethyl]-10,11-dihydro-5H-pyrrolo[2,1-c][1,4]benzodiazepine-3-carboxamide]",50,–
"O=C(c1ccc(C2CCCCC2)cc1)N1Cc2ccc(C(=O)n3ccnc3)n2Cc2ccccc21 [Example 56, 1H-Imidazol-1-yl-[10-(4-cyclohexyl-benzoyl)-10,11-dihydro-5H-pyrrolo[2,1-c][1,4]benzodiazepin-3-yl]-methanone]",16,–
"CN(Cc1cccnc1)C(=O)c1ccc2n1Cc1ccccc1N(C(=O)c1ccc(C3CCCCC3)cc1)C2 [Example 57, 10-(4-Cyclohexyl-benzoyl)-N-methyl-N-(3-pyridinylmethyl)-10,11-dihydro-5H-pyrrolo[2,1-c][1,4]benzodiazepine-3-carboxamide]",-5,–

# System: not given
# Experiment: not given
# Conditions: not given
row,SMILES,melting point
1,"COC(=O)c1ccc2c(c1)N(C(=O)c1ccc(C3CCCCC3)cc1)Cc1ccc(C(=O)N3CCN(C)CC3)n1C2.Cl [Example 1, Methyl 10-(4-cyclohexylbenzoyl)-3-[(4-methyl-1-piperazinyl)carbonyl]-10,11-dihydro-5H-pyrrolo[2,1-c][1,4]benzodiazepine-8-carboxylate hydrochloride salt]",203 °C (dec.)
2,"CN1CCN(C(=O)c2ccc3n2Cc2ccc(C(=O)O)cc2N(C(=O)c2ccc(C4CCCCC4)cc2)C3)CC1 [Example 3, 10-(4-Cyclohexyl-benzoyl)-3-[(4-methyl-1-piperazinyl)carbonyl]-10,11-dihydro-5H-pyrrolo[2,1-c][1,4]benzodiazepine-8-carboxylic acid]",195 to 210 °C
3,"CC(C)(C)c1ccc(C(=O)c2ccc3n2Cc2ccccc2N(C(=O)c2ccc(C4CCCCC4)cc2)C3)cc1 [Example 5, [4-(tert-Butyl)phenyl][10-(4-cyclohexyl-benzoyl)-10,11-dihydro-5H-pyrrolo[2,1-c][1,4]benzodiazepin-3-yl]methanone]",143 to 145 °C
